The numbers were not newly measured in patent US6689909B1, “Substituted N-phenyl 2-hydroxy-2-methyl-3,3,3-trifluoropropanamide derivatives which elevate pyruvate dehydrogenase activity” (AstraZeneca AB, priority 1999, dated 2004), which cites them from elsewhere.

Each structure is given as a SMILES string.

The conditions of series [1]: after repeated administration.
The next series deals with PDH. The conditions noted are these: single administration, 150 mg/kg, intraperitoneally.

As to `O=C(O)C(Cl)Cl` [DCA, dichloroacetic acid], the plasma glucose result in series [1] is reported as “significant decrease in plasma glucose”. In the series with PDH, the “proportion of PDH in its active form” value is given as “increased the proportion of PDH in its active form”.
